Laboratory results: article PMC10349806 (Nature Communications, 2023)
Several values for one entry are separate records, joined by “and”; a condition that tells them apart may be missing. Equal entries are not always repeated.

Biological target: PfCRT^Dd2 (Plasmodium falciparum, UniProt Q9N623, A220S/I356T/K76T/M74I/N326S/N75E/Q271E/R371I)
Assay: Drug uptake assay, X. laevis oocytes expressing PfCRT^Dd2
Type: cell-based
Conditions: for v-1 pH 4.5 / v-1 pH 5.0 / v-1 pH 5.5 / v-1 pH 6.0: Lineweaver-Burk
Experimental: Oocytes were obtained as described previously. Briefly, adult (>2 years old) female X. laevis frogs (NASCO) were anesthetized in a cooled solution of ethyl 3-amino benzoate methanesulfonate (0.1%, w/v), followed by a surgical removal of parts of the ovary. The ovary lobes were carefully dissected and small pieces of oocytes were incubated in Ca^2+-free ND96 buffer (96 mM NaCl, 2 mM KCl, 1 mM MgCl2 buffered with 5 mM HEPES/NaOH, pH 7.5) supplemented with collagenase D (0.1%, w/v; Roche), BSA (0.5%, w/v), and 9 mm Na2HPO4 at 18 °C for 14-16 h while gentle shaking. After incubation, the oocytes were carefully washed several times with ND96 buffer (96 mM NaCl, 2 mM KCl, 1.8 mM CaCl2, 1 mM MgCl2 buffered with 5 mM HEPES/NaOH, pH 7.5) supplemented with 100 mg l^−1 gentamycin). Defolliculated and healthy-looking stage V-VI oocytes were manually selected for RNA microinjection. The RNA was generated as following: The codon-optimized sequences of PfCRT variants were cloned into the pSP64T expression vector. After vector linearization using the restriction endonucleases BamHI or SalI (New England Biolabs), transcription was performed using the in vitro SP6 mMessage mMachine Kit (Ambion)[34]. The obtained RNA was kept at −80 °C and diluted with nuclease-free water to a concentration of 0.6 μg μl^−1. Precision-bore glass capillary tubes (3.5-inch glass capillaries; Drummond Scientific Co.) were pulled on a vertical puller (P-87 Flaming/Brown micropipette puller, Sutter Instrument Co.), graduated, and placed on a microinjector (Nanoject II Auto-Nanoliter Injector, Drummond Scientific Co.). 50 nl of nuclease-free water alone (control oocytes) or 50 nl of 0.6 μg μl^−1 RNA were injected under stereomicroscopic control. Injected oocytes were incubated for 46–72 h at 18 °C with twice-daily buffer changes before usage in experiments.
Drug uptake assays were performed as described previously[21],[22],[24],[34]. […] The direction of radio-labeled drug transport is here from the mostly acidic extracellular solution (pH 4.5 or 6.0, as indicated) into the oocyte cytosol (pH ∼ 7.2), which corresponds to the efflux of drug from the acidic digestive vacuole (pH 5.2) into the parasite cytoplasm (pH 7.2). The topology of PfCRT in the oolemma is such that both the N- and C-terminus face the extracellular milieu[3],[22]. In the parasite, the N- and C-terminus face the lumen of the digestive vacuole. […] For determination of the amount of drug uptake for each oocyte, the reaction medium was removed and the oocytes were washed three times with 2 ml of ice-cold ND96 buffer. Each oocyte was individually transferred to a scintillation vial containing 5% sodium dodecyl sulfate (200 μl) for lysis. […] Oocytes that were injected with water instead of RNA were analyzed in parallel, representing the uptake of a drug by diffusion and/or endogenous permeation pathways. The resulting value represents the “background“ level of drug accumulation in oocytes (in-depth discussion in[22]). The specific PfCRT-mediated uptake was determined by subtracting the corresponding background value measured in water-injected oocytes from that of PfCRT-expressing oocytes. In all cases, at least three separate experiments were performed on oocytes from different frogs (biological replicate), and for each condition in an experiment, measurements were made from 10 oocytes per treatment. For pH 5.5, 6.0, and 6.5, ND96 was buffered with 5 mM MES/Tris base. For pH 4.5, 5 mM Homo-Pipes was used as a buffer and 5 mM HEPES for uptake at pH 7.0.

Sequence of PfCRT^Dd2 (Q9N623 whole entry A220S/I356T/K76T/M74I/N326S/N75E/Q271E/R371I): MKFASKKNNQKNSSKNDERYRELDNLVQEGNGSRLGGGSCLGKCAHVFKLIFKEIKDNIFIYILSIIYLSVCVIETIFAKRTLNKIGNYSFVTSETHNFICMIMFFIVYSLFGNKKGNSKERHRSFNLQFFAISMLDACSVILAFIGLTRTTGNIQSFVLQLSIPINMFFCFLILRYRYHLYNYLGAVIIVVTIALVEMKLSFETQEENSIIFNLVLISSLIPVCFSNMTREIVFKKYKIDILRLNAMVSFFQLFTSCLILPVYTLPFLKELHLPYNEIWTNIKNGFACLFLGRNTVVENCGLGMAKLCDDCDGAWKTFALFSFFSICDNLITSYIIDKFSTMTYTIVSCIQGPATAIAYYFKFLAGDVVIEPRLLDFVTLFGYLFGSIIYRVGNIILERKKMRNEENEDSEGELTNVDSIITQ

CCN(CC)CCCC(C)Nc1ccnc2cc(Cl)ccc12 (stereo not shown) [CQ, chloroquine]
PfCRTDd2 transport activity 10 µM CQ pH 4.5 (10 µM CQ, pH 4.5, individual replicates (Fig 4a)): 0.37 pmol oocyte-1 h-1 and 0.31 pmol oocyte-1 h-1 and 0.76 pmol oocyte-1 h-1 and 0.49 pmol oocyte-1 h-1
PfCRTDd2 transport activity (10 µM CQ, pH 5.0, 60 min): 0.54 pmol oocyte-1 h-1
PfCRTDd2 transport activity 10 µM CQ pH 5.0 (10 µM CQ, pH 5.0, individual replicates (Fig 4a)): 0.58 pmol oocyte-1 h-1 and 0.59 pmol oocyte-1 h-1 and 0.45 pmol oocyte-1 h-1
PfCRTDd2 transport activity (10 µM CQ, pH 5.5, 60 min): 0.69 pmol oocyte-1 h-1
PfCRTDd2 transport activity 10 µM CQ pH 5.5 (10 µM CQ, pH 5.5, individual replicates (Fig 4a)): 0.67 pmol oocyte-1 h-1 and 0.82 pmol oocyte-1 h-1 and 0.59 pmol oocyte-1 h-1 and 0.68 pmol oocyte-1 h-1
PfCRTDd2 transport activity (10 µM CQ, pH 6.0, 60 min): 0.94 pmol oocyte-1 h-1 and 0.95 pmol oocyte-1 h-1 and 0.80 pmol oocyte-1 h-1 and 1.08 pmol oocyte-1 h-1
PfCRTDd2 transport activity 10 µM CQ pH 6.0 (10 µM CQ, pH 6.0, individual replicates (Fig 4a)): 0.95 pmol oocyte-1 h-1 and 0.80 pmol oocyte-1 h-1 and 1.08 pmol oocyte-1 h-1
PfCRTDd2-mediated CQ transport activity (10 µM CQ, time 0 min): 0.00 pmol oocyte-1
PfCRTDd2-mediated CQ transport activity (10 µM CQ, time 30 min): 0.73 pmol oocyte-1
PfCRTDd2-mediated CQ transport activity (10 µM CQ, time 60 min): 1.10 pmol oocyte-1
PfCRTDd2-mediated CQ transport activity (10 µM CQ, time 90 min): 2.55 pmol oocyte-1
v-1 pH 4.5 (10 µM CQ): 2.08 (pmol oocyte-1 h-1)-1
v-1 pH 5.0 (10 µM CQ): 1.85 (pmol oocyte-1 h-1)-1
v-1 pH 5.5 (10 µM CQ): 1.45 (pmol oocyte-1 h-1)-1
v-1 pH 6.0 (10 µM CQ): 1.06 (pmol oocyte-1 h-1)-1
PfCRTDd2 transport activity 50 µM CQ pH 4.5 (50 µM CQ, pH 4.5, individual replicates (Fig 4a)): 0.97 pmol oocyte-1 h-1 and 2.03 pmol oocyte-1 h-1 and 1.14 pmol oocyte-1 h-1 and 1.28 pmol oocyte-1 h-1
PfCRTDd2 transport activity 50 µM CQ pH 5.0 (50 µM CQ, pH 5.0, individual replicates (Fig 4a)): 1.93 pmol oocyte-1 h-1 and 2.00 pmol oocyte-1 h-1 and 3.15 pmol oocyte-1 h-1 and 1.59 pmol oocyte-1 h-1 and 2.59 pmol oocyte-1 h-1 and 2.54 pmol oocyte-1 h-1 and 1.86 pmol oocyte-1 h-1 and 2.77 pmol oocyte-1 h-1 and 2.58 pmol oocyte-1 h-1 and 3.10 pmol oocyte-1 h-1
PfCRTDd2 transport activity 50 µM CQ pH 5.5 (50 µM CQ, pH 5.5, individual replicates (Fig 4a)): 2.14 pmol oocyte-1 h-1 and 3.86 pmol oocyte-1 h-1 and 4.54 pmol oocyte-1 h-1 and 3.39 pmol oocyte-1 h-1 and 3.66 pmol oocyte-1 h-1 and 1.74 pmol oocyte-1 h-1 and 6.45 pmol oocyte-1 h-1 and 4.72 pmol oocyte-1 h-1 and 2.44 pmol oocyte-1 h-1 and 3.17 pmol oocyte-1 h-1 and 4.57 pmol oocyte-1 h-1 and 4.41 pmol oocyte-1 h-1 and 3.78 pmol oocyte-1 h-1
PfCRTDd2 transport activity 50 µM CQ pH 6.0 (50 µM CQ, pH 6.0, individual replicates (Fig 4a)): 4.84 pmol oocyte-1 h-1 and 4.32 pmol oocyte-1 h-1 and 4.63 pmol oocyte-1 h-1
PfCRTDd2-mediated CQ transport activity (50 µM CQ, time 0 min): 0.00 pmol oocyte-1
PfCRTDd2-mediated CQ transport activity (50 µM CQ, time 30 min): 3.63 pmol oocyte-1
PfCRTDd2-mediated CQ transport activity (50 µM CQ, time 60 min): 5.55 pmol oocyte-1
PfCRTDd2-mediated CQ transport activity (50 µM CQ, time 90 min): 7.51 pmol oocyte-1
v-1 pH 4.5 (50 µM CQ): 0.52 (pmol oocyte-1 h-1)-1
v-1 pH 5.0 (50 µM CQ): 0.43 (pmol oocyte-1 h-1)-1
v-1 pH 5.5 (50 µM CQ): 0.27 (pmol oocyte-1 h-1)-1
v-1 pH 6.0 (50 µM CQ): 0.22 (pmol oocyte-1 h-1)-1
PfCRTDd2 transport activity (100 µM CQ, pH 4.5, 60 min): 5.17 pmol oocyte-1 h-1 and 4.60 pmol oocyte-1 h-1 and 5.99 pmol oocyte-1 h-1 and 5.32 pmol oocyte-1 h-1 and 4.77 pmol oocyte-1 h-1
PfCRTDd2 transport activity 100 µM CQ pH 4.5 (100 µM CQ, pH 4.5, individual replicates (Fig 4a)): 4.60 pmol oocyte-1 h-1 and 5.99 pmol oocyte-1 h-1 and 5.32 pmol oocyte-1 h-1 and 4.77 pmol oocyte-1 h-1
PfCRTDd2 transport activity (100 µM CQ, pH 5.0, 60 min): 5.48 pmol oocyte-1 h-1
PfCRTDd2 transport activity 100 µM CQ pH 5.0 (100 µM CQ, pH 5.0, individual replicates (Fig 4a)): 4.33 pmol oocyte-1 h-1 and 6.22 pmol oocyte-1 h-1 and 5.90 pmol oocyte-1 h-1
PfCRTDd2 transport activity (100 µM CQ, pH 5.5, 60 min): 7.61 pmol oocyte-1 h-1
PfCRTDd2 transport activity 100 µM CQ pH 5.5 (100 µM CQ, pH 5.5, individual replicates (Fig 4a)): 6.37 pmol oocyte-1 h-1 and 9.40 pmol oocyte-1 h-1 and 7.07 pmol oocyte-1 h-1
PfCRTDd2 transport activity (100 µM CQ, pH 6.0, 60 min): 9.42 pmol oocyte-1 h-1 and 10.41 pmol oocyte-1 h-1 and 9.48 pmol oocyte-1 h-1 and 8.36 pmol oocyte-1 h-1
PfCRTDd2 transport activity 100 µM CQ pH 6.0 (100 µM CQ, pH 6.0, individual replicates (Fig 4a)): 10.41 pmol oocyte-1 h-1 and 9.48 pmol oocyte-1 h-1 and 8.36 pmol oocyte-1 h-1
PfCRTDd2-mediated CQ transport activity (100 µM CQ, time 0 min): 0.00 pmol oocyte-1
PfCRTDd2-mediated CQ transport activity (100 µM CQ, time 30 min): 5.73 pmol oocyte-1
PfCRTDd2-mediated CQ transport activity (100 µM CQ, time 60 min): 8.29 pmol oocyte-1
PfCRTDd2-mediated CQ transport activity (100 µM CQ, time 90 min): 9.71 pmol oocyte-1
v-1 pH 4.5 (100 µM CQ): 0.19 (pmol oocyte-1 h-1)-1
v-1 pH 5.0 (100 µM CQ): 0.18 (pmol oocyte-1 h-1)-1
v-1 pH 5.5 (100 µM CQ): 0.13 (pmol oocyte-1 h-1)-1
v-1 pH 6.0 (100 µM CQ): 0.11 (pmol oocyte-1 h-1)-1
PfCRTDd2 transport activity (200 µM CQ, pH 4.5, 60 min): 7.21 pmol oocyte-1 h-1 and 7.32 pmol oocyte-1 h-1 and 8.24 pmol oocyte-1 h-1 and 6.30 pmol oocyte-1 h-1 and 7.78 pmol oocyte-1 h-1 and 6.41 pmol oocyte-1 h-1
PfCRTDd2 transport activity 200 µM CQ pH 4.5 (200 µM CQ, pH 4.5, individual replicates (Fig 4a)): 7.32 pmol oocyte-1 h-1 and 8.24 pmol oocyte-1 h-1 and 6.30 pmol oocyte-1 h-1 and 7.78 pmol oocyte-1 h-1 and 6.41 pmol oocyte-1 h-1
PfCRTDd2 transport activity (200 µM CQ, pH 5.0, 60 min): 9.98 pmol oocyte-1 h-1
PfCRTDd2 transport activity 200 µM CQ pH 5.0 (200 µM CQ, pH 5.0, individual replicates (Fig 4a)): 9.29 pmol oocyte-1 h-1 and 10.18 pmol oocyte-1 h-1 and 10.48 pmol oocyte-1 h-1
PfCRTDd2 transport activity (200 µM CQ, pH 5.5, 60 min): 10.75 pmol oocyte-1 h-1
PfCRTDd2 transport activity 200 µM CQ pH 5.5 (200 µM CQ, pH 5.5, individual replicates (Fig 4a)): 11.07 pmol oocyte-1 h-1 and 10.25 pmol oocyte-1 h-1 and 11.13 pmol oocyte-1 h-1 and 10.55 pmol oocyte-1 h-1
PfCRTDd2 transport activity (200 µM CQ, pH 6.0, 60 min): 13.53 pmol oocyte-1 h-1 and 12.77 pmol oocyte-1 h-1 and 14.22 pmol oocyte-1 h-1 and 13.59 pmol oocyte-1 h-1
PfCRTDd2 transport activity 200 µM CQ pH 6.0 (200 µM CQ, pH 6.0, individual replicates (Fig 4a)): 12.77 pmol oocyte-1 h-1 and 14.22 pmol oocyte-1 h-1 and 13.59 pmol oocyte-1 h-1
PfCRTDd2-mediated CQ transport activity (200 µM CQ, time 0 min): 0.00 pmol oocyte-1
PfCRTDd2-mediated CQ transport activity (200 µM CQ, time 30 min): 9.39 pmol oocyte-1
PfCRTDd2-mediated CQ transport activity (200 µM CQ, time 60 min): 15.25 pmol oocyte-1
PfCRTDd2-mediated CQ transport activity (200 µM CQ, time 90 min): 18.81 pmol oocyte-1
v-1 pH 4.5 (200 µM CQ): 0.14 (pmol oocyte-1 h-1)-1
v-1 pH 5.0 (200 µM CQ): 0.10 (pmol oocyte-1 h-1)-1
v-1 pH 5.5 (200 µM CQ): 0.09 (pmol oocyte-1 h-1)-1
v-1 pH 6.0 (200 µM CQ): 0.0739 (pmol oocyte-1 h-1)-1
PfCRTDd2 transport activity (300 µM CQ, pH 4.5, 60 min): 8.79 pmol oocyte-1 h-1 and 8.53 pmol oocyte-1 h-1 and 10.77 pmol oocyte-1 h-1 and 6.50 pmol oocyte-1 h-1 and 9.34 pmol oocyte-1 h-1
PfCRTDd2 transport activity 300 µM CQ pH 4.5 (300 µM CQ, pH 4.5, individual replicates (Fig 4a)): 8.53 pmol oocyte-1 h-1 and 10.77 pmol oocyte-1 h-1 and 6.50 pmol oocyte-1 h-1 and 9.34 pmol oocyte-1 h-1
PfCRTDd2 transport activity (300 µM CQ, pH 5.0, 60 min): 10.68 pmol oocyte-1 h-1
PfCRTDd2 transport activity 300 µM CQ pH 5.0 (300 µM CQ, pH 5.0, individual replicates (Fig 4a)): 10.67 pmol oocyte-1 h-1 and 9.04 pmol oocyte-1 h-1 and 12.33 pmol oocyte-1 h-1
PfCRTDd2 transport activity (300 µM CQ, pH 5.5, 60 min): 12.81 pmol oocyte-1 h-1
PfCRTDd2 transport activity 300 µM CQ pH 5.5 (300 µM CQ, pH 5.5, individual replicates (Fig 4a)): 13.73 pmol oocyte-1 h-1 and 12.01 pmol oocyte-1 h-1 and 12.69 pmol oocyte-1 h-1
PfCRTDd2 transport activity (300 µM CQ, pH 6.0, 60 min): 15.42 pmol oocyte-1 h-1 and 15.31 pmol oocyte-1 h-1 and 16.86 pmol oocyte-1 h-1 and 14.10 pmol oocyte-1 h-1
PfCRTDd2 transport activity 300 µM CQ pH 6.0 (300 µM CQ, pH 6.0, individual replicates (Fig 4a)): 15.31 pmol oocyte-1 h-1 and 16.86 pmol oocyte-1 h-1 and 14.10 pmol oocyte-1 h-1
PfCRTDd2-mediated CQ transport activity (300 µM CQ, time 0 min): 0.00 pmol oocyte-1
PfCRTDd2-mediated CQ transport activity (300 µM CQ, time 30 min): 9.78 pmol oocyte-1
PfCRTDd2-mediated CQ transport activity (300 µM CQ, time 60 min): 14.63 pmol oocyte-1
